PubChem BioAssay AID330 (DTP/NCI, 2004)
Where “and” joins values, the source holds several entries; their conditions need not be identical. Equal entries are not always repeated. Toxic doses and inconclusive results are not listed.

Test system: P388 leukemia ip, CD2F1 mice, survival T/C
Assay: NCI In Vivo Anticancer Drug Screen. Data for tumor model P388 Leukemia (intraperitoneal) in CD2F1 (CDF1) mice
Conditions: endpoint: median survival time, higher = longer survival
Summary of the method: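 Mice carrying the transplanted tumor received test compound or vehicle. Survival was recorded in each group, and the value is the treated-group measurement divided by that of the vehicle-treated control group.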

[1] = dose: 25.0 mg/kg/injection, schedule: Q01DX005 (ip), vehicle: Klucel (hydroxypropylcellulose) (HPC)
[2] = dose: 50.0 mg/kg/injection, schedule: Q01DX005 (ip), vehicle: Klucel (hydroxypropylcellulose) (HPC)

O=C1NC(=O)C(=NC2C(=O)NC(=O)NC2=O)C(=O)N1
T/C (dose: 30.0 mg/kg/injection, schedule: Q01DX005 (ip), vehicle: saline): 96 % of control
T/C (dose: 60.0 mg/kg/injection, schedule: Q01DX005 (ip), vehicle: saline): 92 % of control and 95 % of control
T/C (dose: 120.0 mg/kg/injection, schedule: Q01DX005 (ip), vehicle: saline): 92 % of control
T/C (dose: 240.0 mg/kg/injection, schedule: Q01DX005 (ip), vehicle: saline): 86 % of control

NC(=NCCCC(NCc1ccccc1)C(=O)O)N[N+](=O)[O-] (centres undefined)
T/C (dose: 12.5 mg/kg/injection, schedule: Q01DX009 (ip), vehicle: Klucel (hydroxypropylcellulose) (HPC)): 98 % of control
T/C (dose: 25.0 mg/kg/injection, schedule: Q01DX009 (ip), vehicle: Klucel (hydroxypropylcellulose) (HPC)): 99 % of control
T/C (dose: 50.0 mg/kg/injection, schedule: Q01DX009 (ip), vehicle: Klucel (hydroxypropylcellulose) (HPC)): 99 % of control and 100 % of control
T/C (dose: 100.0 mg/kg/injection, schedule: Q01DX009 (ip), vehicle: Klucel (hydroxypropylcellulose) (HPC)): 99 % of control and 100 % of control
T/C (dose: 200.0 mg/kg/injection, schedule: Q01DX009 (ip), vehicle: Klucel (hydroxypropylcellulose) (HPC)): 100 % of control and 96 % of control
T/C (dose: 400.0 mg/kg/injection, schedule: Q01DX009 (ip), vehicle: Klucel (hydroxypropylcellulose) (HPC)): 94 % of control

CC(=O)N(Cc1cnc2nc(N)[nH]c(=O)c2n1)c1ccc(C(=O)NC(CCC(=O)O)C(=O)O)cc1 (centres undefined)
T/C (dose: 25.0 mg/kg/injection, schedule: Q01DX009 (ip), vehicle: saline): 90 % of control
T/C (dose: 50.0 mg/kg/injection, schedule: Q01DX009 (ip), vehicle: saline): 100 % of control
T/C (dose: 100.0 mg/kg/injection, schedule: Q01DX009 (ip), vehicle: saline): 101 % of control and 104 % of control

COc1cc([C@H]2OC[C@H]3[C@@H]2CO[C@@H]3c2ccc(OC(C)=O)c(OC)c2)ccc1OC(C)=O
T/C (dose: 12.5 mg/kg/injection, schedule: Q01DX005 (ip), vehicle: Klucel (hydroxypropylcellulose) (HPC)): 96 % of control
T/C [1]: 93 % of control
T/C [2]: 86 % of control

O=C(O)CCCc1ccc(N(CCCl)CCCl)cc1
T/C (dose: 1.0 mg/kg/injection, schedule: Q01DX005 (ip), vehicle: saline with Tween-80): 106 % of control
T/C (dose: 1.0 mg/kg/injection, schedule: Q03HX024 (ip), vehicle: saline): 109 % of control
T/C (dose: 1.25 mg/kg/injection, schedule: Q01DX005 (ip), vehicle: saline with Tween-80): 113 % of control and 119 % of control and 121 % of control
T/C (dose: 1.3 mg/kg/injection, schedule: Q01DX009 (ip), vehicle: saline + alcohol): 117 % of control
T/C (dose: 2.0 mg/kg/injection, schedule: Q01DX005 (ip), vehicle: saline with Tween-80): 113 % of control
T/C (dose: 2.0 mg/kg/injection, schedule: Q03HX016 (ip), vehicle: saline): 123 % of control
T/C (dose: 2.0 mg/kg/injection, schedule: Q03HX024 (ip), vehicle: saline): 163 % of control
T/C (dose: 2.0 mg/kg/injection, schedule: Q04DX003 (ip), vehicle: Klucel (hydroxypropylcellulose) (HPC)): 110 % of control
T/C (dose: 2.2 mg/kg/injection, schedule: Q01DX009 (ip), vehicle: saline + alcohol): 120 % of control
T/C (dose: 2.59 mg/kg/injection, schedule: Q04DX002 (ip), vehicle: saline with Tween-80): 114 % of control
T/C (dose: 3.24 mg/kg/injection, schedule: Q01DX009 (ip), vehicle: Klucel (hydroxypropylcellulose) (HPC)): 160 % of control
T/C (dose: 3.6 mg/kg/injection, schedule: Q01DX009 (ip), vehicle: saline + alcohol): 115 % of control
T/C (dose: 3.75 mg/kg/injection, schedule: Q01DX009 (ip), vehicle: Klucel (hydroxypropylcellulose) (HPC)): 118 % of control
T/C (dose: 4.0 mg/kg/injection, schedule: Q01DX009 (ip), vehicle: saline): 120 % of control
T/C (dose: 4.0 mg/kg/injection, schedule: Q01DX009 (sc), vehicle: saline): 118 % of control
T/C (dose: 4.0 mg/kg/injection, schedule: Q03HX008 (ip), vehicle: saline): 150 % of control
T/C (dose: 4.0 mg/kg/injection, schedule: Q03HX016 (ip), vehicle: saline): 204 % of control
T/C (dose: 4.0 mg/kg/injection, schedule: Q04DX003 (ip), vehicle: Klucel (hydroxypropylcellulose) (HPC)): 111 % of control
T/C (dose: 4.32 mg/kg/injection, schedule: Q04DX002 (ip), vehicle: saline with Tween-80): 119 % of control
T/C (dose: 4.5 mg/kg/injection, schedule: Q01DX009 (ip), vehicle: saline + alcohol): 153 % of control
T/C (dose: 5.0 mg/kg/injection, schedule: Q01DX009 (ip), vehicle: saline + alcohol): 154 % of control
T/C (dose: 5.4 mg/kg/injection, schedule: Q01DX009 (ip), vehicle: Klucel (hydroxypropylcellulose) (HPC)): 180 % of control
T/C (dose: 6.7 mg/kg/injection, schedule: Q01DX009 (ip), vehicle: saline + alcohol): 180 % of control
T/C (dose: 7.5 mg/kg/injection, schedule: Q01DX009 (ip), vehicle: Klucel (hydroxypropylcellulose) (HPC)): 122 % of control
T/C (dose: 8.0 mg/kg/injection, schedule: Q01DX005 (ip), vehicle: saline with Tween-80): 186 % of control
T/C (dose: 8.0 mg/kg/injection, schedule: Q01DX009 (ip), vehicle: saline): 170 % of control
T/C (dose: 8.0 mg/kg/injection, schedule: Q01DX009 (sc), vehicle: saline): 118 % of control
T/C (dose: 8.0 mg/kg/injection, schedule: Q03HX016 (ip), vehicle: saline): 200 % of control
T/C (dose: 8.0 mg/kg/injection, schedule: Q03HX024 (ip), vehicle: saline): 90 % of control
T/C (dose: 8.0 mg/kg/injection, schedule: Q04DX003 (ip), vehicle: saline): 113 % of control
T/C (dose: 8.0 mg/kg/injection, schedule: Q04DX003 (ip), vehicle: water): 113 % of control
T/C (dose: 9.0 mg/kg/injection, schedule: Q01DX009 (ip), vehicle: Klucel (hydroxypropylcellulose) (HPC)): 152 % of control
T/C (dose: 10.0 mg/kg/injection, schedule: Q01DX009 (ip), vehicle: saline + alcohol): 166 % of control and 172 % of control and 183 % of control
T/C (dose: 10.0 mg/kg/injection, schedule: Q01DX009 (ip), vehicle: saline with Tween-80): 160 % of control
T/C (dose: 15.0 mg/kg/injection, schedule: Q01DX009 (ip), vehicle: Klucel (hydroxypropylcellulose) (HPC)): 115 % of control
T/C (dose: 15.0 mg/kg/injection, schedule: Q01DX009 (ip), vehicle: saline with Tween-80): 173 % of control
T/C (dose: 16.0 mg/kg/injection, schedule: Q01DX001 (ip), vehicle: saline): 113 % of control
T/C (dose: 16.0 mg/kg/injection, schedule: Q01DX001 (sc), vehicle: saline): 104 % of control
T/C (dose: 16.0 mg/kg/injection, schedule: Q01DX005 (ip), vehicle: saline with Tween-80): 176 % of control
T/C (dose: 16.0 mg/kg/injection, schedule: Q01DX009 (sc), vehicle: saline): 122 % of control
T/C (dose: 16.0 mg/kg/injection, schedule: Q03HX008 (ip), vehicle: saline): 186 % of control
T/C (dose: 16.0 mg/kg/injection, schedule: Q03HX016 (ip), vehicle: saline): 95 % of control
T/C (dose: 16.0 mg/kg/injection, schedule: Q04DX003 (ip), vehicle: Klucel (hydroxypropylcellulose) (HPC)): 169 % of control
T/C (dose: 16.0 mg/kg/injection, schedule: Q08DX002 (ip), vehicle: saline): 154 % of control
T/C (dose: 16.7 mg/kg/injection, schedule: Q01DX009 (ip), vehicle: saline + alcohol): 120 % of control
T/C (dose: 20.0 mg/kg/injection, schedule: Q01DX009 (ip), vehicle: saline with Tween-80): 187 % of control
T/C (dose: 20.0 mg/kg/injection, schedule: Q04DX002 (ip), vehicle: saline with Tween-80): 163 % of control
T/C (dose: 27.8 mg/kg/injection, schedule: Q01DX009 (ip), vehicle: saline + alcohol): 59 % of control
T/C (dose: 32.0 mg/kg/injection, schedule: Q01DX001 (sc), vehicle: saline): 109 % of control
T/C (dose: 32.0 mg/kg/injection, schedule: Q04DX003 (ip), vehicle: Klucel (hydroxypropylcellulose) (HPC)): 100 % of control
T/C (dose: 32.0 mg/kg/injection, schedule: Q04DX003 (ip), vehicle: saline): 190 % of control
T/C (dose: 32.0 mg/kg/injection, schedule: Q04DX003 (ip), vehicle: water): 154 % of control and 212 % of control
T/C (dose: 32.0 mg/kg/injection, schedule: Q08DX002 (ip), vehicle: saline): 190 % of control
T/C (dose: 64.0 mg/kg/injection, schedule: Q01DX001 (sc), vehicle: saline): 113 % of control

CC12C(=O)C(Br)C1CC2S(=O)(=O)O (centres undefined)
T/C (dose: 25.0 mg/kg/injection, schedule: Q04DX002 (ip), vehicle: saline): 97 % of control
T/C (dose: 50.0 mg/kg/injection, schedule: Q04DX002 (ip), vehicle: saline): 95 % of control
T/C (dose: 100.0 mg/kg/injection, schedule: Q04DX002 (ip), vehicle: saline): 98 % of control
T/C (dose: 200.0 mg/kg/injection, schedule: Q04DX002 (ip), vehicle: saline with Tween-80): 96 % of control
T/C (dose: 400.0 mg/kg/injection, schedule: Q04DX002 (ip), vehicle: saline with Tween-80): 99 % of control

CS(=O)(=O)/C=C/COC(=O)/C=C/c1ccccc1
T/C [1]: 102 % of control
T/C [2]: 102 % of control
T/C (dose: 100.0 mg/kg/injection, schedule: Q01DX005 (ip), vehicle: Klucel (hydroxypropylcellulose) (HPC)): 100 % of control
T/C (dose: 200.0 mg/kg/injection, schedule: Q01DX005 (ip), vehicle: Klucel (hydroxypropylcellulose) (HPC)): 102 % of control
